According to US12173018B2, “Penicillin-binding protein inhibitors” (priority 2018, dated 2024):
In brackets after ≈: the same amount, converted by molar mass. Where a name gives a salt, the structure may show the parent alone. Read-outs that look alike come from different tables or passages of the source.

Assays:
[1] = tested on: E. coli DH5α empty pLBII vector control strain; experiment: microbe, parasite or virus in culture; type: cell-based, Escherichia coli; settings: Escherichia coli, read-out: Microbiological Activity (MIC in mg/L), E. coli DH5α/pLBII
Procedure: (§1) Briefly, cryo-preserved bacterial cultures of challenge strains are streaked for isolation on appropriate agar medium, in this case Mueller Hinton II agar. Following incubation to allow growth of the colonies, plates are sealed with parafilm and stored refrigerated for up to two weeks. For preparation of assay inoculum and to ensure low variability, at least 5 colonies are picked from the agar plates with an inoculating loop and aseptically transferred to a culture tube containing 3 mL of Mueller-Hinton Broth (supplemented with divalent cations to required levels based on Manufacturers' certification). The broth culture is grown for 3-5 hours at 37° C. with shaking at 200 rpm. Meanwhile, 2-fold serial dilutions of test compounds are conducted in a 96 well plate with a final volume of 75 μL per well at 2-fold the final desired concentration. After the dilution plates are set up the growing cultures are then diluted in a cuvette containing MH II broth and the optical density is measured at 600 nm. The Inoculum is diluted such that 75 μL of this culture in Mueller-Hinton Broth results in a starting bacterial concentration of 5×10^5 CFU/mL when added to the dilution plates. The plates are incubated for 16-20 hours at 37° C. The MIC values are read visually as the lowest concentration well with no bacterial growth.
To determine if test compounds were affected by CTX-M15, the most abundant extended spectrum […] in clinical settings worldwide, the inhibition of the growth of an engineered strain of Escherichia coli harboring CTX-M15 was tested. This strain was constructed by cloning the gene encoding CTX-M15 into the NdeI and BamHI restriction endonuclease sites of plasmid pLBII, placing the gene(s) under the control of the Lac promoter. The constructed expression plasmid for CTX-M15 was used to transform competent E. coli DH5α cells to make the engineered strain, including an empty pLBII vector control strain. The classic cell based broth microdilution MIC assay was employed as described above with the addition of control antibiotics, known to be degraded by β-lactamases (Ceftazidime, piperacillin and piperacillin+tazobactam).

[2] = tested on: engineered strain of Escherichia coli harboring CTX-M15; experiment: microbe, parasite or virus in culture; type: cell-based; settings: Escherichia coli, read-out: Microbiological Activity (MIC in mg/L), E. coli DH5α/pLBII-CTX-M15, engineered strain producing CTX-M15
N. gonorrhoeae FA1090 = experiment: Liquid broth MIC, N. gonorrhoeae FA1090; type: cell-based; settings: Neisseria gonorrhoeae; N. gonorrhoeae FA1090, liquid broth; read-out: Minimum Inhibitory Concentration, N. gonorrhoeae FA1090
In short: (§2)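 Growth inhibition was scored by eye as the lowest compound concentration free of bacterial growth. Cultures from Kellogg's-supplemented GC agar, diluted to 5×10^5 CFU/mL, were exposed to serially diluted compound for 40-42 h at 36° C under 5% CO2.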

K. pneumoniae 848844 = experiment: microbe, parasite or virus in culture; type: cell-based, Klebsiella pneumoniae; settings: Klebsiella pneumoniae; K. pneumoniae 848844 producing SHV-11 and KPC-2; read-out: MIC K. pneumoniae 848844
In short: (§3)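 Strains are tested by standard CLSI broth microdilution. Log-phase cells, diluted by OD600 to 5×10^5 CFU/mL, meet 2-fold compound series and incubate 16-20 hours at 37° C before the lowest growth-free concentration is recorded.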

[3] = tested on: N. gonorrhoeae ATCC 49226; experiment: Liquid broth MIC, N. gonorrhoeae ATCC 49226; type: cell-based; settings: Neisseria gonorrhoeae, ATCC49226; N. gonorrhoeae ATCC 49226, liquid broth; read-out: Minimum Inhibitory Concentration, N. gonorrhoeae ATCC 49226
In short: as §2

P. aeruginosa PAO1 = experiment: Broth microdilution MIC, P. aeruginosa PAO1; type: cell-based; settings: Pseudomonas aeruginosa
Procedure: (§4) To determine the ability of test compounds to potentiate the inhibition of the growth of bacterial strains, classic cell based broth microdilution minimum inhibitory concentration (MIC) assays were employed. MIC assays are performed according to CLSI methods except where otherwise noted (CLSI, 2011 and CLSI, 2009). The reference type strain E. coli ATCC 25922, the wild-type parent strain E. coli AG100, the hyper-permeable E. coli 901C and E. coli D22 and the E. coli AG100A strain lacking the acrAB efflux pump encoding genes were used to determine the ability of the PBP inhibitors to penetrate the outer membrane of gram-negative bacteria and inhibit bacterial growth. […] The P. aeruginosa PAO1, P. aeruginosa ATCC 27853 and A. baumannii ATCC 19606, along with the hyper-permeable P. aeruginosa ATCC 35151 and an engineered efflux pump-compromised strain of P. aeruginosa (ΔmexAB-oprM) were used to determine the ability of PBP inhibitors to penetrate the outer membrane of P. aeruginosa and A. baumannii and assess antibacterial activity against these important gram-negative organisms.
as §1

K. pneumoniae SI-117 = experiment: microbe, parasite or virus in culture; type: cell-based; settings: Klebsiella pneumoniae, SI117, read-out: MIC K. pneumoniae SI-117
In short: as §3

E. coli D22 = experiment: microbe, parasite or virus in culture; type: cell-based; settings: Escherichia coli; hyper-permeable E. coli D22, broth microdilution; read-out: MIC E. coli D22
In short: as §3

E. coli AG100A = experiment: microbe, parasite or virus in culture; type: cell-based; settings: Escherichia coli, read-out: MIC E. coli AG100A
In short: as §3

K. pneumoniae UMM = experiment: microbe, parasite or virus in culture; type: cell-based; settings: Klebsiella pneumoniae; K. pneumoniae UMM producing SHV-5 and KPC-2; read-out: MIC K. pneumoniae UMM
In short: as §3

E. coli 901C = experiment: microbe, parasite or virus in culture; type: cell-based; settings: Escherichia coli; hyper-permeable E. coli 901C, broth microdilution; read-out: MIC E. coli 901C
In short: as §3

P. aeruginosa ATCC 35151 = experiment: microbe, parasite or virus in culture; type: cell-based; settings: Pseudomonas aeruginosa, ATCC35151; hyper-permeable P. aeruginosa ATCC 35151; read-out: MIC P. aeruginosa ATCC 35151
In short: as §3

[4] = tested on: P. aeruginosa (ΔmexAB-oprM); experiment: microbe, parasite or virus in culture; type: cell-based; settings: Pseudomonas aeruginosa, read-out: MIC P. aeruginosa ΔmexAB-OprM
In short: as §3

N. gonorrhoeae WHO F = experiment: Liquid broth MIC, N. gonorrhoeae WHO F; type: cell-based; settings: Neisseria gonorrhoeae; N. gonorrhoeae WHO F, liquid broth; read-out: Minimum Inhibitory Concentration, N. gonorrhoeae WHO F
In short: as §2

N. gonorrhoeae FA19 = experiment: Liquid broth MIC, N. gonorrhoeae FA19; type: cell-based; settings: Neisseria gonorrhoeae; N. gonorrhoeae FA19, liquid broth; read-out: Minimum Inhibitory Concentration, N. gonorrhoeae FA19
In short: as §2

E. coli ATCC 25922 = experiment: Broth microdilution MIC, E. coli ATCC 25922; type: cell-based; settings: Escherichia coli
In short: as §3

E. coli AG100 = experiment: Broth microdilution MIC, E. coli AG100 (wild-type parent); type: cell-based; settings: Escherichia coli; wild-type parent E. coli AG100, broth microdilution; read-out: MIC E. coli AG100
In short: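 Broth microdilution in cation-supplemented Mueller-Hinton broth, 2-fold serial compound dilutions, inoculum 5×10^5 CFU/mL from 3-5 h log culture.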

A. baumannii ATCC 19606 = experiment: Broth microdilution MIC, A. baumannii ATCC 19606; type: cell-based; settings: Acinetobacter baumannii
Procedure: as §4, §1

E. coli PBP3 = E. coli PBP3 (Escherichia coli (strain K12), UniProt P0AD68); experiment: E. coli PBP3 Bocillin-FL fluorescence polarization competition binding assay
Chain of E. coli PBP3 (P0AD68 whole entry): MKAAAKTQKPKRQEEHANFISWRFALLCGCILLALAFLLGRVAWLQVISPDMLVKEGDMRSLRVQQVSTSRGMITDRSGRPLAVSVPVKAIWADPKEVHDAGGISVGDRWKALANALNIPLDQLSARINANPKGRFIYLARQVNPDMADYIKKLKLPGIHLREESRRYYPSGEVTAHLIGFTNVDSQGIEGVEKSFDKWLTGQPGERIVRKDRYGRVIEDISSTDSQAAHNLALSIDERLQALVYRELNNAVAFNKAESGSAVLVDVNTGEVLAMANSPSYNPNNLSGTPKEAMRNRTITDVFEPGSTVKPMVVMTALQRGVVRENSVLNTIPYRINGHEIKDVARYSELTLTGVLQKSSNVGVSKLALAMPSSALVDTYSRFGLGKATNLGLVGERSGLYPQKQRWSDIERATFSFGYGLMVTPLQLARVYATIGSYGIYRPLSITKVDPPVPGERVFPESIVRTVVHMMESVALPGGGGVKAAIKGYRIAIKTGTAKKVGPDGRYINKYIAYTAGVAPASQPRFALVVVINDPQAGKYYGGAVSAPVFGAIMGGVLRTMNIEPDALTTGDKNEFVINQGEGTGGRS
In short: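 Competition against 0.1 μM Bocillin-FL for binding to 1.5 μM purified protein, read by fluorescence polarization for 60 min. Compounds tested from 0 to 1000 μM; EC50 taken as the concentration reducing probe binding.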

[5] = PAO1, read-out: MIC P. aeruginosa PAO1
[6] = ATCC25922, read-out: MIC E. coli 25922
[7] = ATCC19606, read-out: MIC A. baumannii ATCC 19606
[8] = P. aeruginosa PAO1, broth microdilution, read-out: MIC P. aeruginosa PAO1
[9] = ATCC25922, E. coli ATCC 25922, broth microdilution, read-out: MIC E. coli 25922
[10] = ATCC19606, A. baumannii ATCC 19606, broth microdilution, read-out: MIC A. baumannii ATCC 19606

SMILES | MIC [1] [mg/L] | MIC [2] [mg/L] | MIC (N. gonorrhoeae FA1090) [µg/mL] | MIC (K. pneumoniae 848844) [µg/mL] | MIC [3] [µg/mL] | MIC (K. pneumoniae SI-117) [µg/mL] | MIC (E. coli D22) [µg/mL] | MIC (E. coli AG100A) [µg/mL] | MIC (K. pneumoniae UMM) [µg/mL] | MIC (E. coli 901C) [µg/mL] | MIC (P. aeruginosa ATCC 35151) [µg/mL] | MIC [4] [µg/mL] | MIC (N. gonorrhoeae WHO F) [µg/mL] | MIC (N. gonorrhoeae FA19) [µg/mL] | MIC (E. coli AG100) [µg/mL] | further results
CCN1CCN(C(=O)NC(C)(CCO)C(=O)N[C@H]2Cc3cccc(C(=O)O)c3OB2O)C(=O)C1=O (stereo partly drawn) [Example 12, (3R)-3-(2-(4-ethyl-2,3-dioxopiperazine-1-carboxamido)-4-hydroxy-2-methylbutanamido)-2-hydroxy-3,4-dihydro-2H-benzo[e][1,2]oxaborinine-8-carboxylic acid] | > 512 | > 512 | – | – | – | – | – | – | – | – | – | – | – | – | – | –
CCN1CCN(C(=O)N2CC(CN)(C(=O)N[C@H]3Cc4cccc(C(=O)O)c4OB3O)C2)C(=O)C1=O [Example 14, (R)-3-(3-(aminomethyl)-1-(4-ethyl-2,3-dioxopiperazine-1-carbonyl)azetidine-3-carboxamido)-2-hydroxy-3,4-dihydro-2H-benzo[e][1,2]oxaborinine-8-carboxylic acid, trifluoroacetic acid salt] | > 512 | > 512 | – | – | – | – | – | – | – | – | – | – | – | – | – | –
CCN1CCN(C(=O)NCC2(C(=O)N[C@H]3Cc4cccc(C(=O)O)c4OB3O)CNC2)C(=O)C1=O [Example 53, (R)-3-(3-((4-ethyl-2,3-dioxopiperazine-1-carboxamido)methyl)azetidine-3-carboxamido)-2-hydroxy-3,4-dihydro-2H-benzo[e][1,2]oxaborinine-8-carboxylic acid, trifluoroacetic acid salt] | > 512 | – | – | – | – | – | – | – | – | – | – | – | – | – | – | –
CS(=O)(=O)N1CCN(C(=O)NC(C(=O)N[C@H]2Cc3cccc(C(=O)O)c3OB2O)c2ccc(O)c(O)c2Cl)C1=O (stereo partly drawn) [Example 58, (3R)-3-(2-(2-chloro-3,4-dihydroxyphenyl)-2-(3-(methylsulfonyl)-2-oxoimidazolidine-1-carboxamido)acetamido)-2-hydroxy-3,4-dihydro-2H-benzo[e][1,2]oxaborinine-8-carboxylic acid] | – | 32 to 64 (≈ 53.6 to 107 µM) | 4 to 8 (≈ 6.7 to 13.4 µM) | 8 to 16 | 4 to 8 (≈ 6.7 to 13.4 µM) | > 128 | 8 to 16 | 8 to 16 | 8 to 16 | 2 to 4 | < 0.25 | < 0.25 | 1 to 2 (≈ 1.68 to 3.35 µM) | 4 to 8 (≈ 6.7 to 13.4 µM) | 32 to 64 | MIC (P. aeruginosa PAO1; [5]): 8 to 16 µg/mL; MIC (E. coli ATCC 25922; [6]): 32 to 64 µg/mL; MIC (A. baumannii ATCC 19606; [7]): 2 to 4 µg/mL
NS(=O)(=O)c1ccc([C@@H](NC(=O)N2CCN(CCF)C(=O)C2=O)C(=O)N[C@H]2Cc3cccc(C(=O)O)c3OB2O)cc1O [Example 170, (R)-3-((R)-2-(4-(2-fluoroethyl)-2,3-dioxopiperazine-1-carboxamido)-2-(3-hydroxy-4-sulfamoylphenyl)acetamido)-2-hydroxy-3,4-dihydro-2H-benzo[e][1,2]oxaborinine-8-carboxylic acid] | – | – | 0.25 to 0.5 (≈ 0.402 to 0.805 µM) | 32 to 64 | 4 to 8 (≈ 6.44 to 12.9 µM) | 32 to 64 | 0.5 to 1 | 2 to 4 | 8 to 16 | < 0.25 | < 0.25 | 8 to 16 | < 0.125 | 4 to 8 (≈ 6.44 to 12.9 µM) | 8 to 16 | MIC (P. aeruginosa PAO1; [5]): > 128 µg/mL; MIC (E. coli ATCC 25922; [6]): 8 to 16 µg/mL; MIC (A. baumannii ATCC 19606; [7]): > 128 µg/mL
NCCN1CCN(C(=O)N[C@@H](C(=O)N[C@H]2Cc3cccc(C(=O)O)c3OB2O)c2ccc(O)c(O)c2Cl)C(=O)C1=O [Example 220, (R)-3-((R)-2-(4-(2-aminoethyl)-2,3-dioxopiperazine-1-carboxamido)-2-(2-chloro-3,4-dihydroxyphenyl)acetamido)-2-hydroxy-3,4-dihydro-2H-benzo[e][1,2]oxaborinine-8-carboxylic acid] | – | – | 4 to 8 (≈ 6.78 to 13.6 µM) | 0.5 to 1 | 16 to 32 (≈ 27.1 to 54.3 µM) | 2 to 4 | 0.5 to 1 | 0.5 to 1 | 0.5 to 1 | 0.5 to 1 | < 0.25 | < 0.25 | 1 to 2 (≈ 1.7 to 3.39 µM) | > 64 | 0.5 to 1 | MIC (P. aeruginosa PAO1; [8]): 0.5 to 1 µg/mL; MIC (E. coli ATCC 25922; [9]): 8 to 16 µg/mL; MIC (A. baumannii ATCC 19606; [10]): < 0.25 µg/mL
O=C(O)c1cccc2c1OB(O)[C@@H](NC(=O)C(NC(=O)N1C[C@H]3CCCN3C(=O)C1=O)c1ccc(O)c(O)c1Cl)C2 (stereo partly drawn) [Example 232, (3R)-3-(2-(2-chloro-3,4-dihydroxyphenyl)-2-((R)-3,4-dioxooctahydropyrrolo[1,2-a]pyrazine-2-carboxamido)acetamido)-2-hydroxy-3,4-dihydro-2H-benzo[e][1,2]oxaborinine-8-carboxylic acid] | – | – | – | 8 to 16 | – | 32 to 64 | 8 to 16 | 8 to 16 | 32 to 64 | 8 to 16 | < 0.25 | < 0.25 | – | – | 8 to 16 | MIC (P. aeruginosa PAO1; [8]): 32 to 64 µg/mL; MIC (E. coli ATCC 25922; [9]): > 128 µg/mL; EC50 (E. coli PBP3): 30 to 500 µM; MIC (A. baumannii ATCC 19606; [10]): > 128 µg/mL
